For 18 compounds, MIC results are on record in ChEMBL document CHEMBL3045689, “Synthesis of novel 2-(3-aryl-sydnon-4-ylidene)-5-substituted-[1,3,4]-thiadiazolylamines and [1,3,4]-thiadiazol-2-yl-3-oxo-[1,2,4]-triazoles as antimicrobial agents” (2012).

By MIC is commonly meant the least concentration at which growth counts as inhibited.

Structures are written as SMILES. ≈ marks a conversion by molar mass, not a printed value.

Holding throughout (format): functional
The test system of assay [1] is Aspergillus niger. In words: Antifungal activity against Aspergillus niger after 18 to 24 hr by microbroth dilution method. In general terms: In broth dilution the organism is exposed to a series of concentrations in liquid medium.
Assay [2] relates to Candida albicans. In words: Antifungal activity against Candida albicans after 18 to 24 hr by microbroth dilution method.
Assay [3] concerns Bacillus cereus. In words: Antibacterial activity against Bacillus cereus after 18 to 24 hr by microbroth dilution method.
In assay [4] the test system is Escherichia coli. Nature of the assay: Antibacterial activity against Escherichia coli after 18 to 24 hr by microbroth dilution method.

Turning to `Cc1nn(-c2ccccc2)c(=O)n1-c1nnc(-c2ccccc2)s1`, the MIC amounted to 62.5 µg/mL (≈ 186 µM) in assay [1], 31.2 µg/mL (≈ 93.2 µM) in assay [2], 125 µg/mL (≈ 373 µM) in assay [3] and 31.2 µg/mL (≈ 93.2 µM) in assay [4].
Take `Cc1ccc(-n2nc(C)n(-c3nnc(-c4ccccc4)s3)c2=O)cc1`: the MIC in assay [1] came out at 62.5 µg/mL (≈ 179 µM); in assay [2], 125 µg/mL (≈ 358 µM); in assay [3] it was 62.5 µg/mL (≈ 179 µM); in assay [4] it was 15.6 µg/mL (≈ 44.6 µM).
For `COc1ccc(-n2nc(C)n(-c3nnc(-c4ccccc4)s3)c2=O)cc1`, the MIC in assay [1] came out at 62.5 µg/mL (≈ 171 µM); in assay [2], 31.2 µg/mL (≈ 85.5 µM); in assay [3], 125 µg/mL (≈ 342 µM); in assay [4], 15.6 µg/mL (≈ 42.7 µM).
The corresponding values for `Cc1nn(-c2ccc(Cl)cc2)c(=O)n1-c1nnc(-c2ccccc2)s1` are 15.6 µg/mL (≈ 42.2 µM), 7.8 µg/mL (≈ 21.1 µM), 15.6 µg/mL (≈ 42.2 µM) and 31.2 µg/mL (≈ 84.5 µM).
Turning to `Cc1nnc(-n2c(C)nn(-c3ccccc3)c2=O)s1`, the MIC in assay [1] was found to be 62.5 µg/mL (≈ 229 µM); in assay [2] it was 31.2 µg/mL (≈ 114 µM); in assay [3], 125 µg/mL (≈ 457 µM); in assay [4] it was 62.5 µg/mL (≈ 229 µM).
`Cc1ccc(-n2nc(C)n(-c3nnc(C)s3)c2=O)cc1`: the minimal inhibitory concentration (MIC) in assay [1], in assay [2], in assay [3] and in assay [4] was 62.5 µg/mL (≈ 218 µM) each time.
With `COc1ccc(-n2nc(C)n(-c3nnc(C)s3)c2=O)cc1`, the MIC in assay [1] was found to be 7.8 µg/mL (≈ 25.7 µM); in assay [2], 31.2 µg/mL (≈ 103 µM); in assay [3] it was 31.5 µg/mL (≈ 104 µM); in assay [4], 15.6 µg/mL (≈ 51.4 µM).
On the same counts, the results for `Cc1nnc(-n2c(C)nn(-c3ccc(Cl)cc3)c2=O)s1` are 7.8 µg/mL (≈ 25.3 µM), 7.8 µg/mL (≈ 25.3 µM), 15.6 µg/mL (≈ 50.7 µM) and 15.6 µg/mL (≈ 50.7 µM).
On the same counts, the results for `[O-]c1on[n+](-c2ccccc2)c1/C=N/c1nnc(-c2ccccc2)s1` are 125 µg/mL (≈ 358 µM), 31.2 µg/mL (≈ 89.4 µM), 125 µg/mL (≈ 358 µM) and 31.2 µg/mL (≈ 89.4 µM).
Take `Cc1ccc(-[n+]2noc([O-])c2/C=N/c2nnc(-c3ccccc3)s2)cc1`: the MIC came to 125 µg/mL (≈ 344 µM) in assay [1], 3.9 µg/mL (≈ 10.7 µM) in assay [2], 125 µg/mL (≈ 344 µM) in assay [3] and 62.5 µg/mL (≈ 172 µM) in assay [4].
On to `COc1ccc(-[n+]2noc([O-])c2/C=N/c2nnc(-c3ccccc3)s2)cc1`, for which the MIC in assay [1], in assay [2], in assay [3] and in assay [4] was 62.5 µg/mL (≈ 165 µM) throughout.
Regarding `[O-]c1on[n+](-c2ccc(Cl)cc2)c1/C=N/c1nnc(-c2ccccc2)s1`, the MIC was 31.2 µg/mL (≈ 81.4 µM) in assay [1], 7.8 µg/mL (≈ 20.3 µM) in assay [2], 62.5 µg/mL (≈ 163 µM) in assay [3] and 31.2 µg/mL (≈ 81.4 µM) in assay [4].
Turning to `Cc1nnc(/N=C/c2c([O-])on[n+]2-c2ccccc2)s1`, the MIC in assay [1] turned out to be 125 µg/mL (≈ 435 µM); in assay [2] it was 31.2 µg/mL (≈ 109 µM); in assay [3], 250 µg/mL (≈ 870 µM); in assay [4] it was 62.5 µg/mL (≈ 218 µM).
On the same counts, the results for `Cc1ccc(-[n+]2noc([O-])c2/C=N/c2nnc(C)s2)cc1` are 125 µg/mL (≈ 415 µM), 31.2 µg/mL (≈ 104 µM), 125 µg/mL (≈ 415 µM) and 62.5 µg/mL (≈ 207 µM).
On the same counts, the results for `COc1ccc(-[n+]2noc([O-])c2/C=N/c2nnc(C)s2)cc1` are 125 µg/mL (≈ 394 µM), 7.8 µg/mL (≈ 24.6 µM), 125 µg/mL (≈ 394 µM) and 15.6 µg/mL (≈ 49.2 µM).
On the same counts, the results for `Cc1nnc(/N=C/c2c([O-])on[n+]2-c2ccc(Cl)cc2)s1` are 125 µg/mL (≈ 389 µM), 7.8 µg/mL (≈ 24.2 µM), 62.5 µg/mL (≈ 194 µM) and 62.5 µg/mL (≈ 194 µM).
As to `O=C(N[C@H](CO)[C@H](O)c1ccc([N+](=O)[O-])cc1)C(Cl)Cl` [CHLORAMPHENICOL], the MIC in assay [3] stood at 12.5 µg/mL (≈ 38.7 µM); in assay [4], 1.95 µg/mL (≈ 6.03 µM).
On to `CC(=O)N1CCN(c2ccc(OCC3COC(Cn4ccnc4)(c4ccc(Cl)cc4Cl)O3)cc2)CC1` (stereo not drawn) [KETOCONAZOLE], for which the MIC in assay [1] and in assay [2] was 0.97 µg/mL (≈ 1.83 µM) throughout.
